Measurements: patent US6812243B2, “Indole derivatives and their use for the treatment of malignant and other diseases based on pathological proliferation” (Zentaris AG, priority 1998, dated 2004)
Like-named read-outs stand apart in the source and are kept apart here. Each block holds one molecule with its values, some of them ahead of it.

Experiments:
PDGF receptor = biological target: T1, PDGF receptor (Mus musculus, UniProt P05622); assay: Inhibition of PDGF-dependent tyrosine phosphorylation in intact Swiss 3T3 cells; format: cell-based; conditions: 2 h incubation with compound, PDGF-BB 100 ng/ml for 5 min, read-out: IC 50 (μM), inhibition of PDGF-dependent tyrosine phosphorylation
T1 construct: other: Swiss 3T3 cells, 2 h incubation with compound; PDGFR phosphorylation in vivo (Swiss 3T3 cells), IC 50; other: intact Swiss 3T3 cells; PDGFR phosphorylation in vitro (Swiss 3T3 membranes), IC 50; other: isolated plasma membranes of Swiss 3T3 cells
Protocol: Swiss 3T3 cells are cultured for 1 week under standard conditions (DMEM with glutamine, 4 g of glucose/1, 10% FCS, antibiotics, 5-7.5% CO2) and are confluent and no longer proliferating at the end of the culture period. The medium is replaced by serum-free DMEM and the cells are incubated at 37° C. for 2 h with the compounds according to the invention or, in control experiments, with DMSO (final concentration 0.1-1%). The cells are then stimulated at room temperature for 5 min by addition of PDGF-BB to a final concentration of 100 ng/ml, in controls addition of the corresponding solvent takes place. The cells are then washed twice with ice-cold PBS and lysed in a Triton X-100-containing lysis buffer (composition and process as described in Selective platelet-derived growth factor receptor kinase blockers reverse sis-transformation M. Kovalenko, A. Gazit, A. Böhmer, C. Rorsman, L. Rönnstrand, C. H. Heldin, J. Waltenberger, F. D. Böhmer, A. Levitzki (1994) Cancer Res. 54, 6106-6114). The lysates are centrifuged and the protein concentration is determined. […]
Tyrosine phosphorylation is detected by standard processes using antiphosphosphotyrosine [sic]antibodies. […] Quantification is carried out either by grey value analyses of films used for the luminescence detection or directly using a luminometer. […]

[1] = biological target: T2, EGF receptor tyrosine kinase (Homo sapiens, UniProt P00533); assay: EGFR phosphorylation in intact A 431 cells; format: cell-based; conditions: intact A431 cells; read-out: EGFR phosphorylation in vivo (A 431 cells), IC 50
T2 construct: tested in intact A431 cells; endogenous in cells; host or cells: A431 cells
Protocol: The compounds according to the invention were furthermore investigated in vitro using isolated plasma membranes of Swiss 3T3 cells and using PDGF receptor purified from overexpressing cells, tested in intact A431 cells (and in some cases also in Swiss 3T3 plasma membranes) for possible inhibition of the EGF receptor tyrosine kinase and tested for inhibition of recombinant Src kinase.
30 μM. The compounds thus have specificity for the inhibition of the PDGF receptor tyrosine kinase in relation to other tyrosine kinases.

[2] = system: sis-transformed NIH3T3 cells; assay: Colony formation of sis-3T3 cells in soft agar; format: cell-based; conditions: Mus musculus, read-out: Colony formation (sis-3T3 cells), IC 50
Excerpt: Furthermore, the compounds were investigated for a possible antitransforming action using sis-transformed NIH3T3 cells. In these cells, a transformed phenotype characterized, inter alia, by irregular multilayered growth and colony formation in soft agar is maintained by expression of PDGF-BB and permanent activation of the endogenous PDGF receptors.

Swiss 3T3 cells = assay: DNA synthesis in growth factor stimulated Swiss 3T3 cells; format: cell-based
Excerpt: DNA synthesis tests in Swiss 3T3 cells which are stimulated with different growth factors are suitable for characterizing selective antiproliferative actions of receptor tyrosine kinase inhibitors. The compounds were investigated with respect to their action on the DNA sythesis stimulated in these cells by PDGF-BB, bFGF, FCS and the combination of EGF and insulin. These stimulants are approximately equipotent and increase the DNA synthesis in previously growth-arrested Swiss 3T3 cells to 5- to 20-fold.

T2 sequence (P00533 25-1210): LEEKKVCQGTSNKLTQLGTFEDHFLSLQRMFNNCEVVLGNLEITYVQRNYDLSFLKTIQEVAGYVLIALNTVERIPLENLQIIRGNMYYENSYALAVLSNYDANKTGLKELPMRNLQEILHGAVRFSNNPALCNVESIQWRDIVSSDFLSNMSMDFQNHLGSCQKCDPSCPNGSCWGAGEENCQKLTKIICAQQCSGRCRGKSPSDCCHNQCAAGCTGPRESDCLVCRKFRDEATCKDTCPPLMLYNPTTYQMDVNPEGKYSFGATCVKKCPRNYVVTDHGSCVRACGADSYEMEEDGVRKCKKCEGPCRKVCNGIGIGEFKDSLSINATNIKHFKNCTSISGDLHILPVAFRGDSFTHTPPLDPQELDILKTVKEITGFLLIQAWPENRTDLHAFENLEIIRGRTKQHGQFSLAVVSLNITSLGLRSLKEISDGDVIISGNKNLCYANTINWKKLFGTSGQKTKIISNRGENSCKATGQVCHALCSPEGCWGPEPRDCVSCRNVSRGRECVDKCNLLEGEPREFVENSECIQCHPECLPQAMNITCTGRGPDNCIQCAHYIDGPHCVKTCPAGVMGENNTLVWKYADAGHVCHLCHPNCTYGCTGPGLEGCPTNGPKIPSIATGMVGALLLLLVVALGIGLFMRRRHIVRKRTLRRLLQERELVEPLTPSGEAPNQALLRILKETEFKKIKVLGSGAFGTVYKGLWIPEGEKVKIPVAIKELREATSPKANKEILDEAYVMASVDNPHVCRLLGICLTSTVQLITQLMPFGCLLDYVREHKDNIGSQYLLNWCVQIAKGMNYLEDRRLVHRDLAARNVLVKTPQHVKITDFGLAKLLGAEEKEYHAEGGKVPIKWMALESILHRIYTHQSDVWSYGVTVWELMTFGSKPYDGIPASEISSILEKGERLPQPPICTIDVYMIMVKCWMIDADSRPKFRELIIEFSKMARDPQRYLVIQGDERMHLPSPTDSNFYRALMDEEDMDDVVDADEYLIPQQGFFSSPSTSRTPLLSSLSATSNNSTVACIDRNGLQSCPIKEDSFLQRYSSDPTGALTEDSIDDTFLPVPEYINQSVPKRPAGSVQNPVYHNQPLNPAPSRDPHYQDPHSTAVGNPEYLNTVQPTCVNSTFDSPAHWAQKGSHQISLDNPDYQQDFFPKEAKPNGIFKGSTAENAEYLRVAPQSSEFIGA
T1 sequence (P05622 32-1098): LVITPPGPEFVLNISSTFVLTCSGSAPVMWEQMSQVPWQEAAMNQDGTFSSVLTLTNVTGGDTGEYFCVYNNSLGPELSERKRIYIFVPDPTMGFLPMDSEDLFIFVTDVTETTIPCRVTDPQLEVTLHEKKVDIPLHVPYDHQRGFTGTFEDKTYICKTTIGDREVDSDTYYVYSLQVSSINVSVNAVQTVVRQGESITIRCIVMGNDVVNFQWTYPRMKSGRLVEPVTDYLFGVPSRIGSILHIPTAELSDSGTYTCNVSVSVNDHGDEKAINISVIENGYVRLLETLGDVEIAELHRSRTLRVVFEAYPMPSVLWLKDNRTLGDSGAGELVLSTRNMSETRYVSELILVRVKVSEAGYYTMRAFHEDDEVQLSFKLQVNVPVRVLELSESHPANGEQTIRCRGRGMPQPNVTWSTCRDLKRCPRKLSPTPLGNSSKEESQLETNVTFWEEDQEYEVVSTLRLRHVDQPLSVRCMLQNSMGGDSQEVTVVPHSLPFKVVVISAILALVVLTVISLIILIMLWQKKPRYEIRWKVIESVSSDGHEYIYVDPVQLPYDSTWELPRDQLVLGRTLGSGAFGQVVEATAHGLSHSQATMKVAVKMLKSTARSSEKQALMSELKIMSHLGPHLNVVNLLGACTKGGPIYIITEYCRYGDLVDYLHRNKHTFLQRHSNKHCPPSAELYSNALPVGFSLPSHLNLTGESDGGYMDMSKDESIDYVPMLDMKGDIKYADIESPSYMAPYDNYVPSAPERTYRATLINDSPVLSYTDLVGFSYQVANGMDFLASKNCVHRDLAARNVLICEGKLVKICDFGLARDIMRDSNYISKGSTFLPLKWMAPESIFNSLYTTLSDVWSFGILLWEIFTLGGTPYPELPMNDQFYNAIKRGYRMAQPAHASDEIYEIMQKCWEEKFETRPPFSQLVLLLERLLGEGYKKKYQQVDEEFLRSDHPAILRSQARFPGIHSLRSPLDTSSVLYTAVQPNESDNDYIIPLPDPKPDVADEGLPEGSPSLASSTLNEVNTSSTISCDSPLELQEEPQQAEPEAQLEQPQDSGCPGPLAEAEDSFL

SMILES: COc1ccc2[nH]c(C(=O)c3cc4ccccc4[nH]3)cc2c1 [Example 20, (5-Methoxyindol-2-yl)-(indol-2-yl)methan-1-one]
melting point: 233 to 235 °C | IC50 [1]: > 10 µM

SMILES: O=C(c1cc2ccccc2[nH]1)c1cc2ccccc2[nH]1 [Example 19, Bisindol-2-ylmethan-1-one]
IC50 [2]: 3 to 10 µM | IC50 [1]: > 10 µM | IC50 (Swiss 3T3 cells; Swiss-3T3, read-out: DNA synthesis (Swiss 3T3 cells), 10% FCS, IC 50): > 30 µM | IC50 (Swiss 3T3 cells; Swiss-3T3, read-out: DNA synthesis (Swiss 3T3 cells), EGF/insulin-stimulated, IC 50): > 30 µM | IC50 (Swiss 3T3 cells; Swiss-3T3, read-out: DNA synthesis (Swiss 3T3 cells), FGF-stimulated, IC 50): 3 to 10 µM | IC50 (Swiss 3T3 cells; Swiss-3T3, read-out: DNA synthesis (Swiss 3T3 cells), PDGF-stimulated, IC 50): 3 to 10 µM

SMILES: O=C(c1cc2ccccc2[nH]1)c1cc2cc(O)ccc2[nH]1 [Example 43, 5-Hydroxy-1H-2-indolyl(1H-2-indolyl)methanone]
melting point: > 220 °C

SMILES: COc1cccc2cc(C(O)c3cc4ccccc4n3S(=O)(=O)c3ccccc3)n(S(=O)(=O)c3ccccc3)c12 (stereo not drawn) [Example 12, 7-Methoxy-1-phenylsulphonyl-1H-2-indolyl(1-phenylsulphonyl-1H-2-indolyl)methanol]
melting point: 148 to 150 °C

SMILES: COc1ccc2cc(C(=O)c3cc4ccccc4[nH]3)[nH]c2c1 [Example 32, 6-Methoxy-1H-2-indolyl(1H-2-indolyl)methanone]
melting point: 184 to 186 °C

Results, then the molecule that gave them:

IC50 (PDGF receptor): 0.3 to 1 µM
SMILES: O=C(Cc1cccs1)Oc1ccc2[nH]c(C(=O)c3cc4ccccc4[nH]3)cc2c1 [Example 58]

melting point: > 350 °C
SMILES: O=C1NC(=O)C(c2c(CCCc3[nH]c4ccccc4c3C3=C(Br)C(=O)NC3=O)[nH]c3ccccc23)=C1Br [Example 113, 3-Bromo-4-(2-(3-(3-(4-bromo-2,5-dioxo-2,5-dihydro-1H-3-pyrrolyl)-1H-2-indolyl)propyl)-1H-3-indolyl)-2,5-dihydro-1H-pyrrole-2,5-dione]

melting point: 215 to 217 °C
SMILES: CN(C)CC(=O)Oc1ccc2[nH]c(C(=O)c3cc4ccccc4[nH]3)cc2c1 [Example 56]

melting point: 213 to 214 °C
SMILES: CN(C)CCn1c2c(c3ccccc31)C1=C(C(=O)NC1=O)c1c([nH]c3ccccc13)C2 [Example 90, 1,2,3,8,9,10-Hexahydro-8-[2-(N,N-dimethylamino)ethyl]-indolo[3′,2′:5,6]pyrrolo[3′,4′:3,4]cyclohepta[b]indole-1,3-dione]
